The target in data set [1] is PI3Kα (Homo sapiens, UniProt P42336). The data set can be described thus: PI3K-alpha fluorescence polarization assay. It is filed as biochemical. As to conditions: read-out: PI3Kα Median IC50. On the technique in general: Polarisation of emitted light reports the rotation of a fluorescent probe.
In data set [2] the target is PI3Kγ (Homo sapiens, UniProt P48736). The data set can be described thus: PI3K-gamma fluorescence polarization assay. It is filed as biochemical. Particulars: read-out: PI3Kγ Median IC50.
Chain of PI3Kγ (P48736 whole entry, species assumed): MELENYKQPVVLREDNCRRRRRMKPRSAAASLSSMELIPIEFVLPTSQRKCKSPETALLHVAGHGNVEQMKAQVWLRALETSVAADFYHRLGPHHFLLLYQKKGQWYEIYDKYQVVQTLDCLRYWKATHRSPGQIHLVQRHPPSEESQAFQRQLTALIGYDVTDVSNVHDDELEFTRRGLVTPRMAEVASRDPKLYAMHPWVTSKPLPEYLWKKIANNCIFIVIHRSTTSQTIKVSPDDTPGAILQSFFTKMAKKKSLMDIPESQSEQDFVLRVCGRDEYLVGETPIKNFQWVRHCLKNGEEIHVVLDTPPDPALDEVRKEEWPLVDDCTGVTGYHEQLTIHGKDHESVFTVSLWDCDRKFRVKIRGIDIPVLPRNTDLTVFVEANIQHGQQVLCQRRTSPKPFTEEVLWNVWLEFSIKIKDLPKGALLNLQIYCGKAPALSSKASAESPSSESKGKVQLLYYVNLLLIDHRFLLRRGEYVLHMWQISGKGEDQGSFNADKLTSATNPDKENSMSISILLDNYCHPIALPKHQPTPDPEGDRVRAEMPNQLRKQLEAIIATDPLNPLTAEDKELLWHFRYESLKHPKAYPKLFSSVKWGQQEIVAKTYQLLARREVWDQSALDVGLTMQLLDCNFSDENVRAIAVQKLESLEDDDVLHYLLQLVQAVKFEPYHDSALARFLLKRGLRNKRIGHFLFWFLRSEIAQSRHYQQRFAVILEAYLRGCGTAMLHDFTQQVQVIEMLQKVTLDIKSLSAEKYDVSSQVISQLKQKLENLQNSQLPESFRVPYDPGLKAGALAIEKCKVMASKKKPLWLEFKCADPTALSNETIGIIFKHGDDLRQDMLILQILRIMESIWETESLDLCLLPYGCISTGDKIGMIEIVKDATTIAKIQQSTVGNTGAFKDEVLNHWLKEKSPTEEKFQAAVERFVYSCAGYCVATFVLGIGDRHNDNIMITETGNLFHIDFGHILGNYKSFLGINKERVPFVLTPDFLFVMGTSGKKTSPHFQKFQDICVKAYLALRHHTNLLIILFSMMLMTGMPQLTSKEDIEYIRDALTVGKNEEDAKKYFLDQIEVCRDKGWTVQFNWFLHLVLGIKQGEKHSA
The target of data set [3] is mTOR (Homo sapiens, UniProt P42345). Put plainly: mTOR enzyme assay (DELFIA format, His6-S6K substrate). It is filed as biochemical. Particulars: read-out: mTOR Kinase Median IC50.

pIC50: −log10 of the molar value.

Chain of PI3Kα (P42336 whole entry, species assumed): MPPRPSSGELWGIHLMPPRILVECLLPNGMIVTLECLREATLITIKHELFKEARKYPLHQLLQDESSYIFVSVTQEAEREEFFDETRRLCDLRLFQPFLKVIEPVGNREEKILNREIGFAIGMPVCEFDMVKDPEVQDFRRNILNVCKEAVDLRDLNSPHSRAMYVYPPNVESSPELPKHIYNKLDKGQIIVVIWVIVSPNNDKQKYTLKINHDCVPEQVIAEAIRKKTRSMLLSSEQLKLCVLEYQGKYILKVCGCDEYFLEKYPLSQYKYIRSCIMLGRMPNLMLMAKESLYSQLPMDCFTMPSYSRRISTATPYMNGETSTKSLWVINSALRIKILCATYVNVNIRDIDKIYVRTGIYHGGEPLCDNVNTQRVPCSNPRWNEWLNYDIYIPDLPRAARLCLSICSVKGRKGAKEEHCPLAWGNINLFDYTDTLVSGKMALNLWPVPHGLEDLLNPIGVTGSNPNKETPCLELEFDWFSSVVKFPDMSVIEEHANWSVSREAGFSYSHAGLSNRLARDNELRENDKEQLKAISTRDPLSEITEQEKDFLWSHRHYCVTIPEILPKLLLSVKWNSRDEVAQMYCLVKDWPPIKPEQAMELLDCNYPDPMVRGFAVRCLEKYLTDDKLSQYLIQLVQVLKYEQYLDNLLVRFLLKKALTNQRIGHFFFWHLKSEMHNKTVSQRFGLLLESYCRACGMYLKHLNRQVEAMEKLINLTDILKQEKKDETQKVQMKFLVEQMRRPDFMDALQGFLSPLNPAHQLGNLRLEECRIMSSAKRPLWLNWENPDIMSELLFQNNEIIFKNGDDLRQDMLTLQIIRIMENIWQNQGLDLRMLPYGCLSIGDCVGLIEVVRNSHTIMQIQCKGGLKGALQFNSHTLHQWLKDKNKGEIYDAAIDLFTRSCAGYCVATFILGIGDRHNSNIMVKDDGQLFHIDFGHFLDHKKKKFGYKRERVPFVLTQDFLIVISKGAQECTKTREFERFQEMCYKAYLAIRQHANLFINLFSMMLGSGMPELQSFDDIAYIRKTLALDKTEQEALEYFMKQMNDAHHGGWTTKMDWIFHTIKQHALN
Chain of PI3Kα (P27986 whole entry partner, species assumed): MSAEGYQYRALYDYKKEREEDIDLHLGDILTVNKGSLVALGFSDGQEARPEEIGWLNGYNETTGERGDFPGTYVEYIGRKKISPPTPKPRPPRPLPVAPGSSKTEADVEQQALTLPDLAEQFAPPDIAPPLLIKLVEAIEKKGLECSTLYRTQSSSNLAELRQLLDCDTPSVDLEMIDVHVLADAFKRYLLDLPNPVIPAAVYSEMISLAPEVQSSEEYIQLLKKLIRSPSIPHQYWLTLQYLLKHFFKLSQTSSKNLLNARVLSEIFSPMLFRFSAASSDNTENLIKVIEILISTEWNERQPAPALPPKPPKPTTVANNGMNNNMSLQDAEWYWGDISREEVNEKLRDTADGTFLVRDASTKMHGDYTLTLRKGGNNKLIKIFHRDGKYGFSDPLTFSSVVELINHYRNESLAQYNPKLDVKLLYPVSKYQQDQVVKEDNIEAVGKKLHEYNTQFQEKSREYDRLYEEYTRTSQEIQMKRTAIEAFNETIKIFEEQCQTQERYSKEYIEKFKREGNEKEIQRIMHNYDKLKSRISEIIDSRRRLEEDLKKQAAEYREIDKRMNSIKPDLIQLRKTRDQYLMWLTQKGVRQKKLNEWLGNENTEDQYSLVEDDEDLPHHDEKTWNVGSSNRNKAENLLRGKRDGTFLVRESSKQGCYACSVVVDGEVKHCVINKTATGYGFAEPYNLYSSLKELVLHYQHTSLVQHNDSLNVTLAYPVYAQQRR

What is called pIC50 is −log10 of the IC50, conventionally taken in molar units. For orientation: melting point means the temperature of the solid-liquid transition. With `Cn1cc(/C=C2\Oc3ccc(NC(=O)NCCCCl)cc3C2=O)c2c(N3CC4CCC(C3)O4)ccnc21` [Compound 240, 1-(3-chloropropyl)-3-[(2Z)-2-{[1-methyl-4-(8-oxa-3-azabicyclo[3.2.1]oct-3-yl)-1H-pyrrolo[2,3-b]pyridin-3-yl]methylene}-3-oxo-2,3-dihydro-1-benzofuran-5-yl]urea], the melting point fell in the range of 234 to 241 °C. Besides, in data set [1], the pIC50 is 5.97. Further, in data set [2], the negative-log IC50 (pIC50) is 5.66. Further, the pIC50 in data set [3] was 6.98.

`CN(C)CCCNC(=O)Nc1ccc2c(c1)C(=O)/C(=C/c1cn(C)c3nccc(N4CC5CCC(C4)O5)c13)O2` [Compound 241, 1-[3-(dimethylamino)propyl]-3-[(2Z)-2-{[1-methyl-4-(8-oxa-3-azabicyclo[3.2.1]oct-3-yl)-1H-pyrrolo[2,3-b]pyridin-3-yl]methylene}-3-oxo-2,3-dihydro-1-benzofuran-5-yl]urea] came in with a melting point of 261 to 263 °C. In data set [1], the pIC50 is 7.28. Moreover, the negative-log IC50 (pIC50) in data set [2] was 7.47. The pIC50 in data set [3] was 7.98.

`COCCN(C)CCCNC(=O)Nc1ccc2c(c1)C(=O)/C(=C/c1cn(C)c3nccc(N4CC5CCC(C4)O5)c13)O2` [Compound 242, 1-{3-[(2-methoxyethyl)(methyl)amino]propyl}-3-[(2Z)-2-{[1-methyl-4-(8-oxa-3-azabicyclo[3.2.1]oct-3-yl)-1H-pyrrolo[2,3-b]pyridin-3-yl]methylene}-3-oxo-2,3-dihydro-1-benzofuran-5-yl]urea] gave a melting point of 158 to 163 °C. The negative logarithm of the IC50 (pIC50) in data set [1] is 6.61. Besides, the pIC50 in data set [2] is 6.11. The negative logarithm of the IC50 (pIC50) in data set [3] is 7.19.

`COCCN(C)C(=O)C1CCN(c2ccnc3c2c(/C=C2\Oc4ccc(NC(=O)Nc5cccnc5)cc4C2=O)cn3C)CC1` [Compound 246, N-(2-methoxyethyl)-N-methyl-1-{1-methyl-3-[(Z)-{3-oxo-5-[(pyridin-3-ylcarbamoyl)amino]-1-benzofuran-2(3H)-ylidene}methyl]-1H-pyrrolo[2,3-b]pyridin-4-yl}piperidine-4-carboxamide] yielded a melting point of 282 to 285 °C. Besides, the pIC50 in data set [1] is 5.85. Further, the pIC50 in data set [2] is 5.81. Also, the pIC50 in data set [3] is 7.52.

Compound `Cn1cc(/C=C2\Oc3ccc(NC(=O)Nc4cccnc4)cc3C2=O)c2c(N3CCC(C(=O)N4CC5CCC(C4)O5)CC3)ccnc21` [Compound 250, 1-[(2Z)-2-({1-methyl-4-[4-(8-oxa-3-azabicyclo[3.2.1]oct-3-ylcarbonyl)piperidin-1-yl]-1H-pyrrolo[2,3-b]pyridin-3-yl}methylene)-3-oxo-2,3-dihydro-1-benzofuran-5-yl]-3-pyridin-3-ylurea] displayed a melting point of 260 to 265 °C. Besides, the pIC50 in data set [1] is 5.78. In data set [2], the pIC50 was 5.55. In data set [3], the pIC50 was 7.77.

In the case of `COCCN(CCOC)C(=O)C1CCN(c2ccnc3c2c(/C=C2\Oc4ccc(NC(=O)Nc5cccnc5)cc4C2=O)cn3C)CC1` [Compound 251, N,N-bis(2-methoxyethyl)-1-{1-methyl-3-[(Z)-{3-oxo-5-[(pyridin-3-ylcarbamoyl)amino]-1-benzofuran-2(3H)-ylidene}methyl]-1H-pyrrolo[2,3-b]pyridin-4-yl}piperidine-4-carboxamide], the melting point lay within 206 to 210 °C. The pIC50 in data set [1] is 5.39. Besides, the pIC50 in data set [2] is 5.25. The pIC50 in data set [3] is 7.80.

In the case of `CN(Cc1ccncc1)C(=O)C1CCN(c2ccnc3c2c(/C=C2\Oc4ccc(NC(=O)Nc5cccnc5)cc4C2=O)cn3C)CC1` [Compound 255, N-methyl-1-{1-methyl-3-[(Z)-{3-oxo-5-[(pyridin-3-ylcarbamoyl)amino]-1-benzofuran-2(3H)-ylidene}methyl]-1H-pyrrolo[2,3-b]pyridin-4-yl}-N-(pyridin-4-ylmethyl)piperidine-4-carboxamide], the melting point fell in the range of 125 to 135 °C. In addition, the pIC50 in data set [1] is 5.91. Besides, the negative-log IC50 (pIC50) in data set [2] was 5.62. Also, in data set [3], the pIC50 was 8.03.

In turn, `CN(Cc1cccnc1)C(=O)C1CCN(c2ccnc3c2c(/C=C2\Oc4ccc(NC(=O)Nc5cccnc5)cc4C2=O)cn3C)CC1` [Compound 256, N-methyl-1-{1-methyl-3-[(Z)-{3-oxo-5-[(pyridin-3-ylcarbamoyl)amino]-1-benzofuran-2(3H)-ylidene}methyl]-1H-pyrrolo[2,3-b]pyridin-4-yl}-N-(pyridin-3-ylmethyl)piperidine-4-carboxamide] returned a melting point of 195 to 205 °C. In data set [1], the negative logarithm of the IC50 (pIC50) was 5.99. In addition, the pIC50 in data set [2] was 5.79. For the same compound, the pIC50 in data set [3] is 7.96.

Turning to `CN(Cc1ccccn1)C(=O)C1CCN(c2ccnc3c2c(/C=C2\Oc4ccc(NC(=O)Nc5cccnc5)cc4C2=O)cn3C)CC1` [Compound 257, N-methyl-1-{1-methyl-3-[(Z)-{3-oxo-5-[(pyridin-3-ylcarbamoyl)amino]-1-benzofuran-2(3H)-ylidene}methyl]-1H-pyrrolo[2,3-b]pyridin-4-yl}-N-(pyridin-2-ylmethyl)piperidine-4-carboxamide], the melting point is 187 to 189 °C. Besides, in data set [1], the pIC50 is 5.80. In data set [2], the pIC50 is 5.85. For the same compound, the negative logarithm of the IC50 (pIC50) in data set [3] is 8.08.

For `Cn1cc(/C=C2\Oc3ccc(NC(=O)Nc4cccnc4)cc3C2=O)c2c(N3CCC(C(=O)Nc4cccnc4)CC3)ccnc21` [Compound 262, 1-{1-methyl-3-[(Z)-{3-oxo-5-[(pyridin-3-ylcarbamoyl)amino]-1-benzofuran-2(3H)-ylidene}methyl]-1H-pyrrolo[2,3-b]pyridin-4-yl}-N-pyridin-3-ylpiperidine-4-carboxamide], the melting point is 180 to 190 °C (dec.). In data set [1], the pIC50 is 5.54. For the same compound, the pIC50 in data set [2] was 4.98. Also, the pIC50 in data set [3] was 7.84.

Take `Cn1cc(/C=C2\Oc3ccc(NC(=O)Nc4cccnc4)cc3C2=O)c2c(N3CCC(C(=O)Nc4ccncc4)CC3)ccnc21` [Compound 263, 1-{1-methyl-3-[(Z)-{3-oxo-5-[(pyridin-3-ylcarbamoyl)amino]-1-benzofuran-2(3H)-ylidene}methyl]-1H-pyrrolo[2,3-b]pyridin-4-yl}-N-pyridin-4-ylpiperidine-4-carboxamide]: the melting point was 230 to 235 °C (dec.). The pIC50 in data set [1] was 4.81. Further, in data set [2], the pIC50 is 5.09. Further, in data set [3], the pIC50 was 7.60.

On to `Cn1cc(/C=C2\Oc3ccc(NC(=O)Nc4cccnc4)cc3C2=O)c2c(N3CCC(C(=O)N4CC5CC4CN5)CC3)ccnc21` (centres unmarked) [Compound 264, 1-[(2Z)-2-({4-[4-(2,5-diazabicyclo[2.2.1]hept-2-ylcarbonyl)piperidin-1-yl]-1-methyl-1H-pyrrolo[2,3-b]pyridin-3-yl}methylene)-3-oxo-2,3-dihydro-1-benzofuran-5-yl]-3-pyridin-3-ylurea], for which the melting point is 257 to 262 °C (dec.). For the same compound, the pIC50 in data set [1] was 5.20. In data set [2], the pIC50 was 6.42. Moreover, the pIC50 in data set [3] is 7.78.

On to `CN(C(=O)C1CCN(c2ccnc3c2c(/C=C2\Oc4ccc(NC(=O)Nc5cccnc5)cc4C2=O)cn3C)CC1)c1cccnc1` [Compound 269, N-methyl-1-{1-methyl-3-[(Z)-{3-oxo-5-[(pyridin-3-ylcarbamoyl)amino]-1-benzofuran-2(3H)-ylidene}methyl]-1H-pyrrolo[2,3-b]pyridin-4-yl}-N-pyridin-3-ylpiperidine-4-carboxamide], for which the melting point lay within 184 to 194 °C. Moreover, the pIC50 in data set [1] was 5.30. The pIC50 in data set [2] is 5.24. For the same compound, the pIC50 in data set [3] was 7.89.

In the case of `Cn1cc(/C=C2\Oc3ccc(NC(=O)Nc4cccnc4)cc3C2=O)c2c(N3CCC(C(=O)NCc4cccnc4)CC3)ccnc21` [Compound 270, 1-{1-methyl-3-[(Z)-{3-oxo-5-[(pyridin-3-ylcarbamoyl)amino]-1-benzofuran-2(3H)-ylidene}methyl]-1H-pyrrolo[2,3-b]pyridin-4-yl}-N-(pyridin-3-ylmethyl)piperidine-4-carboxamide], the melting point is 187 to 194 °C. In data set [1], the pIC50 is less than 5.00. The pIC50 in data set [2] is less than 5.00. Also, the pIC50 in data set [3] was 8.22.

In the case of `Cn1cc(/C=C2\Oc3ccc(NC(=O)Nc4cccnc4)cc3C2=O)c2c(N3CCC(C(=O)NCc4ccncc4)CC3)ccnc21` [Compound 271, 1-{1-methyl-3-[(Z)-{3-oxo-5-[(pyridin-3-ylcarbamoyl)amino]-1-benzofuran-2(3H)-ylidene}methyl]-1H-pyrrolo[2,3-b]pyridin-4-yl}-N-(pyridin-4-ylmethyl)piperidine-4-carboxamide], the melting point lay within 208 to 216 °C. Besides, in data set [1], the pIC50 is 5.39. For the same compound, the pIC50 in data set [2] was 5.41. Further, the pIC50 in data set [3] is 8.05.

In turn, `CN1CC2CC1CN2C(=O)C1CCN(c2ccnc3c2c(/C=C2\Oc4ccc(NC(=O)Nc5cccnc5)cc4C2=O)cn3C)CC1` (centres unmarked) [Compound 272, 1-{(2Z)-2-[(1-methyl-4-{4-[(5-methyl-2,5-diazabicyclo[2.2.1]hept-2-yl)carbonyl]piperidin-1-yl}-1H-pyrrolo[2,3-b]pyridin-3-yl)methylidene]-3-oxo-2,3-dihydro-1-benzofuran-5-yl}-3-pyridin-3-ylurea] returned a melting point of 151 to 164 °C. The pIC50 in data set [1] was less than 5.00. Further, the pIC50 in data set [2] was 5.62. For the same compound, the pIC50 in data set [3] was 7.72.

Regarding `Cn1cc(/C=C2\Oc3ccc(NC(=O)Nc4cccnc4)cc3C2=O)c2c(N3C4CCCC3COC4)ccnc21` [Compound 276, 1-[(2Z)-2-{[1-methyl-4-(3-oxa-9-azabicyclo[3.3.1]non-9-yl)-1H-pyrrolo[2,3-b]pyridin-3-yl]methylidene}-3-oxo-2,3-dihydro-1-benzofuran-5-yl]-3-pyridin-3-ylurea], the melting point was 240 to 245 °C (dec.). Further, in data set [1], the pIC50 was 5.65. Moreover, the negative logarithm of the IC50 (pIC50) in data set [2] was 5.95. Further, the pIC50 in data set [3] is 7.50.

Source of the values: patent US20090298820A1, “3-SUBSTITUTED-1H-PYRROLO[2,3-B]PYRIDINE AND 3-SUBSTITUTED-1H-PYRROLO[3,2-B]PYRIDINE COMPOUNDS, THEIR USE AS MTOR KINASE AND PI3 KINASE INHIBITORS, AND THEIR SYNTHESES” (Wyeth, priority 2008, published 2009).
